Molecules are shown by their SMILES.

The test system of one experiment is IFNα-induced pSTAT5 (pY694) in CD3 positive cells of human whole blood. The experiment can be described thus: IFNα-Induced STAT Phosphorylation in Human Whole Blood. In kind it is cell-based. Conditions: 1 h compound incubation, 1000 U/mL recombinant human IFNα A/D for 15 min, pSTAT5 in CD3 positive population, read-out: Human WB IFNα-Induced Stat Phosph. (IC50). The protocol:
IFNα-Induced STAT Phosphorylation in Human Whole Blood
After an hour long incubation with compound, human whole blood (drawn with either EDTA or ACD-A as anti-coagulant) was stimulated with 1000 U/mL recombinant human IFNα A/D (R&D Systems 11200-2) for 15 min. The stimulation was stopped by adding Fix/Lyse buffer (BD 558049). Cells were stained with a CD3 FITC antibody (BD 555916), washed, and permeabilized on ice using Perm III buffer (BD 558050). Cells were then stained with an Alexa-Fluor 647 pSTAT5 (pY694) antibody (BD 612599) for 30 min prior to analysis on the FACS Canto II. The amount of pSTAT5 expression was quantitated by median fluorescence intensity after gating on the CD3 positive population.
IFNα-Induced STAT Phosphorylation in Human Whole Blood Inhibition Data ND—no data available
A word on the IC50: it is the point on the concentration scale where inhibition reaches its midpoint. For `[2H]C([2H])([2H])NC(=O)c1cnc(NC(=O)C2CC2)cc1Nc1cccc(-c2ccn(CCNC(=O)COC)n2)c1OC` [Example 473], the IC50 is above 10000 nM.

Still in this experiment, the particulars now being: Homo sapiens, 1 h compound incubation, 1000 U/mL recombinant human IFNα A/D for 15 min, pSTAT5 in CD3 positive population, read-out: Human WB IFNα-Induced Stat Phosph. (IC50).
On to `[2H]C([2H])([2H])NC(=O)c1nnc(NC(=O)C2CC2)cc1Nc1cccc(-c2ncc(CC(=O)N3CCS(=O)(=O)CC3)s2)c1OC` [Example 250], for which the IC50 worked out at 640 nM.

Consider `[2H]C([2H])([2H])NC(=O)c1cnc(Nc2ccc(OC)nn2)cc1Nc1cccc(-c2csc(C(=O)NCCOC)n2)c1OC` [Example 567], for which the concentration for half-maximal inhibition (IC50) is 700 nM.

As to `[2H]C([2H])([2H])NC(=O)c1nnc(NC(=O)C2CC2)cc1Nc1cccc(-c2cc(C(=O)NC(COC)COC)n(C)n2)c1OC` [Example 540], the half-inhibitory concentration (IC50) was determined as 460 nM.

With `COc1c(Nc2cc(NC(=O)C3CC3)nnc2C(N)=O)cccc1-c1noc(CCS(C)(=O)=O)n1` [Example 71], the IC50 was found to be 25 nM.

As for `[2H]C([2H])([2H])NC(=O)c1nnc(NC(=O)C2CC2)cc1Nc1cccc(-c2nc(CN(C)C(C)=O)no2)c1OC` [Example 173], the IC50 was 300 nM.

For the compound `[2H]C([2H])([2H])NC(=O)c1nnc(NC(=O)C2CC2)cc1Nc1cccc(-c2nc(C)c(C(=O)N(C)C)s2)c1OC` [Example 367], the half-maximal inhibitory concentration (IC50) is 60 nM.

Turning to `[2H]C([2H])([2H])NC(=O)c1nnc(NC(=O)C2CC2)cc1Nc1cccc(-c2cnn(CC(=O)NCCOC)n2)c1OC` [Example 426, 6-(cyclopropanecarboxamido)-4-((2-methoxy-3-(2-(2-((2-methoxyethyl)amino)-2-oxoethyl)-2H-1,2,3-triazol-4-yl)phenyl)amino)-N-trideuteromethylpyridazine-3-carboxamide], the 50% inhibitory concentration (IC50) was determined as 30 nM.

As to `[2H]C([2H])([2H])NC(=O)c1nnc(NC(=O)C2CC2)cc1Nc1cccc(-c2nc([C@@H](C)NC(=O)CC)no2)c1OC` [Example 196], the half-maximal inhibitory concentration (IC50) was 1180 nM.

On to `[2H]C([2H])([2H])NC(=O)c1nnc(NC(=O)C2CC2)cc1Nc1cccc(-c2ncc(C(=O)N3CCC(N(C)C)CC3)s2)c1OC` [Example 315], for which the half-maximal inhibitory concentration (IC50) turned out to be 22 nM.

Consider `[2H]C([2H])([2H])NC(=O)c1nnc(NC(=O)C2CC2)cc1Nc1cccc(-c2ncc(C(=O)NCC(O)CN3CCCC3=O)s2)c1OC` (stereo not drawn) [Example 332], for which the half-inhibitory concentration (IC50) worked out at 40 nM.

`[2H]C([2H])([2H])NC(=O)c1nnc(NC(=O)C2CC2)cc1Nc1cccc(-c2ccn(CCN(C[C@H](O)CC)C[C@@H](O)CC)n2)c1OC` [Example 475]: the concentration for half-maximal inhibition (IC50) was 2320 nM.

Consider `[2H]C([2H])([2H])NC(=O)c1nnc(NC(=O)C2CC2)cc1Nc1cccc(-c2noc(CCS(C)(=O)=O)n2)c1OC` [Example 78], for which the IC50 amounted to 70 nM.

For `[2H]C([2H])([2H])NC(=O)c1nnc(NC(=O)C2CC2)cc1Nc1cccc(-c2nc(CNC(=O)COC)no2)c1OC` [Example 152], the concentration for half-maximal inhibition (IC50) worked out at 1310 nM.

With `[2H]C([2H])([2H])NC(=O)c1nnc(NC(=O)C2CC2)cc1Nc1cccc(-c2ncc(C(=O)N3CCN(CCO)CC3)s2)c1OC` [Example 269], the IC50 is 40 nM.

As for `[2H]C([2H])([2H])NC(=O)c1nnc(NC(=O)C2CC2)cc1Nc1cccc(-c2ccn(CCN)n2)c1OC` [Example 465], the IC50 was 130 nM.

For `[2H]C([2H])([2H])NC(=O)c1nnc(Nc2cc(C(C)(C)O)ccn2)cc1Nc1cccc(-c2csc(C(=O)NCCOC)n2)c1OC` [Example 571], the IC50 came out at 1760 nM.

On to `[2H]C([2H])([2H])NC(=O)c1nnc(NC(=O)C2CC2)cc1Nc1cccc(-c2nc(CN3CCN(S(C)(=O)=O)CC3=O)no2)c1OC` [Example 141], for which the concentration for half-maximal inhibition (IC50) was found to be 240 nM.

For `[2H]C([2H])([2H])NC(=O)c1nnc(NC(=O)C2CC2)cc1Nc1cccc(-c2nc([C@H](N)[C@H](C)O)no2)c1OC` [Example 204], the IC50 came to 140 nM.

In the case of `COc1c(Nc2cc(NC(=O)C3CC3)nnc2C(N)=O)cccc1-c1ncc(C(=O)NCC(O)CO)o1` (stereo not drawn) [Example 420], the 50% inhibitory concentration (IC50) was 220 nM.

For the compound `[2H]C([2H])([2H])NC(=O)c1nnc(NC(=O)C2CC2)cc1Nc1cccc(-c2nc(CN3CCCC3)no2)c1OC` [Example 209], the 50% inhibitory concentration (IC50) was 1370 nM.

In the case of `[2H]C([2H])([2H])NC(=O)c1nnc(NC(=O)C2CC2)cc1Nc1cccc(-c2cc(C(=O)N3C[C@@H](C)O[C@@H](C)C3)n(C)n2)c1OC` [Example 525], the IC50 was determined as 240 nM.

For the compound `[2H]C([2H])([2H])NC(=O)c1nnc(NC(=O)C2CC2)cc1Nc1cccc(-c2noc(CNC(=O)OC)n2)c1OC` [Example 30], the half-maximal inhibitory concentration (IC50) was determined as 1380 nM.

As to `[2H]C([2H])([2H])NC(=O)c1cnc(Nc2cc(C(C)(C)O)ccn2)cc1Nc1cc(F)cc(-c2cnn(C)n2)c1OC` [Example 454], the IC50 amounted to 190 nM.

For `[2H]C([2H])([2H])NC(=O)c1cnc(NC(=O)C2CC2)cc1Nc1cccc(-c2noc(COC(C)C)n2)c1OC` [Example 89], the half-inhibitory concentration (IC50) turned out to be 30 nM.

As to `[2H]C([2H])([2H])NC(=O)c1nnc(NC(=O)C2CC2)cc1Nc1cccc(-c2nc(CCO)no2)c1OC` [Example 225], the IC50 worked out at 350 nM.

Regarding `[2H]C([2H])([2H])NC(=O)c1nnc(NC(=O)C2CC2)cc1Nc1cccc(-c2ccn(CCNC(C)=O)n2)c1OC` [Example 468], the IC50 came to 270 nM.

For `[2H]C([2H])([2H])NC(=O)c1cnc(NC(=O)C2CC2)cc1Nc1cccc(-c2cnn(CCNC(=O)COC)n2)c1OC` [Example 441], the half-maximal inhibitory concentration (IC50) was found to be 290 nM.

For the compound `[2H]C([2H])([2H])NC(=O)c1cnc(NC(=O)C2CC2)cc1Nc1cccc(-c2nc(CN3CCCC3)no2)c1OC` [Example 215], the IC50 is 150 nM.

`[2H]C([2H])([2H])NC(=O)c1cnc(NC(=O)C2CC2)cc1Nc1cccc(-c2noc(CN(C)S(C)(=O)=O)n2)c1OC` [Example 94]: the IC50 turned out to be 11 nM.

With `COc1c(Nc2cc(NC(=O)C3CC3)nnc2C(N)=O)cccc1-c1ncc(C(=O)NC2CCC(N(C)C)CC2)s1` (stereo not drawn) [Example 405], the IC50 was 90 nM.

As for `[2H]C([2H])([2H])NC(=O)c1cnc(Nc2cc(C(C)(C)O)ccn2)cc1Nc1cc(F)cc(-c2csc(C(=O)NCCOC)n2)c1OC` [Example 573], the IC50 was found to be 2000 nM.

For the compound `COCCNC(=O)c1cnc(-c2cccc(Nc3cc(NC(=O)C4CC4)nnc3C(N)=O)c2OC)s1` [Example 408], the half-maximal inhibitory concentration (IC50) was 110 nM.

On to `[2H]C([2H])([2H])NC(=O)c1cnc(NC(=O)C2CC2)cc1Nc1cccc(-c2nc(CN3C[C@@H](C)O[C@@H](C)C3)no2)c1OC` [Example 210], for which the half-inhibitory concentration (IC50) is 220 nM.

As for `[2H]C([2H])([2H])NC(=O)c1nnc(NC(=O)C2CC2)cc1Nc1cccc(-c2nc([C@H](NC(C)=O)[C@H](C)O)no2)c1OC` [Example 203], the half-inhibitory concentration (IC50) came to 460 nM.

Regarding `[2H]C([2H])([2H])NC(=O)c1nnc(NC(=O)C2CC2)cc1Nc1cccc(-c2cc(C(=O)N3CC4CN(C)CC4C3)n(C)n2)c1OC` (stereo not drawn) [Example 491], the IC50 was 260 nM.

On to `COc1c(Nc2cc(NC(=O)C3CC3)nnc2C(N)=O)cccc1-c1ncc(C(=O)N2CCC(CO)CC2)o1` [Example 418], for which the half-maximal inhibitory concentration (IC50) was found to be 130 nM.

`[2H]C([2H])([2H])NC(=O)c1nnc(NC(=O)C2CC2)cc1Nc1cccc(-c2cnc(C(=O)N(C)C)s2)c1OC` [Example 239, 5-(3-((6-(cyclopropanecarboxamido)-3-((methyl-d3)carbamoyl)pyridazin-4-yl)amino)-2-methoxyphenyl)-N,N-dimethylthiazole-2-carboxamide]: the IC50 was determined as 50 nM.

On to `[2H]C([2H])([2H])NC(=O)c1nnc(NC(=O)C2CC2)cc1Nc1cccc(-c2nc(C)c(C(=O)NCCC3CCCN3C)s2)c1OC` (stereo not drawn) [Example 355], for which the half-maximal inhibitory concentration (IC50) is 380 nM.

As to `[2H]C([2H])([2H])NC(=O)c1nnc(NC(=O)C2CC2)cc1Nc1cccc(-c2cc(C(=O)N(C)C)n(C)n2)c1OC` [Example 483], the half-inhibitory concentration (IC50) was determined as 60 nM.

For `[2H]C([2H])([2H])NC(=O)c1nnc(NC(=O)C2CC2)cc1Nc1cccc(-c2nc(-c3ccccc3)no2)c1OC` [Example 123], the IC50 was above 10000 nM.

For `[2H]C([2H])([2H])NC(=O)c1nnc(NC(=O)C2CC2)cc1Nc1cccc(-c2nc([C@@H](NC(=O)OC)[C@@H](C)O)no2)c1OC` [Example 188], the IC50 is 1270 nM.

As for `[2H]C([2H])([2H])NC(=O)c1nnc(Nc2ccc(C)nn2)cc1Nc1cccc(-c2ncc(C(=O)N3CCS(=O)(=O)CC3)s2)c1OC` [Example 383], the IC50 turned out to be 30 nM.

`[2H]C([2H])([2H])NC(=O)c1nnc(NC(=O)C2CC2)cc1Nc1cccc(-c2cnn(CCNC(=O)OC(C)(C)C)n2)c1OC` [Example 431]: the concentration for half-maximal inhibition (IC50) is above 10000 nM.

For the compound `[2H]C([2H])([2H])NC(=O)c1cnc(NC(=O)C2CC2)cc1Nc1cccc(-c2csc(C(=O)NCCOC)n2)c1OC` [Example 569], the IC50 came out at 590 nM.

In the case of `[2H]C([2H])([2H])NC(=O)c1nnc(Nc2cnc(OC)cn2)cc1Nc1cccc(-c2csc(C(=O)NCCOC)n2)c1OC` [Example 570], the 50% inhibitory concentration (IC50) is 930 nM.

Turning to `[2H]C([2H])([2H])NC(=O)c1nnc(NC(=O)C2CC2)cc1Nc1cccc(-n2cc(CN3CCS(=O)(=O)CC3)nn2)c1OC` [Example 1, 6-(cyclopropanecarboxamido)-4-((3-(4-((1,1-dioxidothiomorpholino)methyl)-1H-1,2,3-triazol-1-yl)-2-methoxyphenyl)amino)-N-(trideuteromethyl)pyridazine-3-carboxamide], the IC50 was 2800 nM.

As for `[2H]C([2H])([2H])NC(=O)c1nnc(NC(=O)C2CC2)cc1Nc1cccc(-c2cc(C(=O)N(C)CC(O)CO)n(C)n2)c1OC` (stereo not drawn) [Example 520], the concentration for half-maximal inhibition (IC50) was found to be 770 nM.

Values taken from US12240840B2, “Amide-substituted heterocyclic compounds for the treatment of conditions related to the modulation of IL-12, IL-23 and/or IFN-alpha” (BRISTOL-MYERS SQUIBB COMPANY, priority 2018, dated 2025).
